According to PubChem BioAssay AID256 (DTP/NCI, 2004):
Values joined by “and” are separate entries in the source; they are usually repeats but may differ in a detail not shown here. Equal values may be shown once. Toxic doses and inconclusive results are not listed.

Tested on: CD2F1 mice, L1210 leukemia ip, survival T/C
Assay: NCI In Vivo Anticancer Drug Screen. Data for tumor model L1210 Leukemia (intraperitoneal) in CD2F1 (CDF1) mice
Conditions: higher = longer survival
Method in brief: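 Read-out first: treated-group measurement over vehicle-control measurement, expressed as a ratio. Animals bore a transplanted tumor line and were dosed with compound or vehicle.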

[1] = endpoint: mean survival time, dose: 100.0 mg/kg/injection, schedule: Q04DX002 (ip), vehicle: other
[2] = endpoint: mean survival time, dose: 400.0 mg/kg/injection, schedule: Q04DX002 (ip), vehicle: other
[3] = endpoint: mean survival time, dose: 100.0 mg/kg/injection, schedule: Q01DX009 (ip), vehicle: saline with Tween-80
[4] = endpoint: mean survival time, dose: 100.0 mg/kg/injection, schedule: Q01DX001 (ip), vehicle: saline with Tween-80
[5] = endpoint: mean survival time, dose: 200.0 mg/kg/injection, schedule: Q01DX001 (ip), vehicle: saline with Tween-80
[6] = endpoint: mean survival time, dose: 400.0 mg/kg/injection, schedule: Q01DX001 (ip), vehicle: saline with Tween-80
[7] = endpoint: mean survival time, dose: 100.0 mg/kg/injection, schedule: Q04DX003 (ip), vehicle: saline with Tween-80
[8] = endpoint: mean survival time, dose: 200.0 mg/kg/injection, schedule: Q04DX003 (ip), vehicle: saline with Tween-80
[9] = endpoint: mean survival time, dose: 400.0 mg/kg/injection, schedule: Q04DX003 (ip), vehicle: saline with Tween-80
[10] = endpoint: mean survival time, dose: 100.0 mg/kg/injection, schedule: Q01DX009 (ip), vehicle: other
[11] = endpoint: mean survival time, dose: 200.0 mg/kg/injection, schedule: Q01DX009 (ip), vehicle: other
[12] = endpoint: mean survival time, dose: 50.0 mg/kg/injection, schedule: Q01DX009 (ip), vehicle: Klucel (hydroxypropylcellulose) (HPC)
[13] = endpoint: mean survival time, dose: 100.0 mg/kg/injection, schedule: Q01DX009 (ip), vehicle: Klucel (hydroxypropylcellulose) (HPC)
[14] = endpoint: mean survival time, dose: 200.0 mg/kg/injection, schedule: Q01DX009 (ip), vehicle: Klucel (hydroxypropylcellulose) (HPC)
[15] = endpoint: mean survival time, dose: 400.0 mg/kg/injection, schedule: Q01DX009 (ip), vehicle: Klucel (hydroxypropylcellulose) (HPC)
[16] = endpoint: mean survival time, dose: 100.0 mg/kg/injection, schedule: Q04DX003 (ip), vehicle: Klucel (hydroxypropylcellulose) (HPC)
[17] = endpoint: mean survival time, dose: 200.0 mg/kg/injection, schedule: Q04DX003 (ip), vehicle: Klucel (hydroxypropylcellulose) (HPC)
[18] = endpoint: mean survival time, dose: 400.0 mg/kg/injection, schedule: Q04DX003 (ip), vehicle: Klucel (hydroxypropylcellulose) (HPC)
[19] = endpoint: mean survival time, dose: 12.5 mg/kg/injection, schedule: Q04DX003 (ip), vehicle: saline

Nc1cc(=O)c2cn[nH]c2[nH]1
T/C (endpoint: mean survival time, dose: 12.5 mg/kg/injection, schedule: Q01DX005 (ip), vehicle: other): 98 % of control
T/C (endpoint: mean survival time, dose: 25.0 mg/kg/injection, schedule: Q01DX005 (ip), vehicle: other): 102 % of control
T/C (endpoint: mean survival time, dose: 50.0 mg/kg/injection, schedule: Q01DX005 (ip), vehicle: other): 102 % of control
T/C (endpoint: mean survival time, dose: 100.0 mg/kg/injection, schedule: Q01DX005 (ip), vehicle: other): 95 % of control

Cc1cc(=O)c2ccccc2n1C
T/C (endpoint: mean survival time, dose: 5.0 mg/kg/injection, schedule: Q04DX002 (ip), vehicle: saline): 98 % of control
T/C (endpoint: mean survival time, dose: 10.0 mg/kg/injection, schedule: Q04DX002 (ip), vehicle: saline): 98 % of control
T/C (endpoint: mean survival time, dose: 20.0 mg/kg/injection, schedule: Q04DX002 (ip), vehicle: saline): 98 % of control

Cc1ccc(C(=O)OCCN2CCOCC2)c([N+](=O)[O-])c1OCc1ccccc1
T/C [1]: 94 % of control
T/C (endpoint: mean survival time, dose: 200.0 mg/kg/injection, schedule: Q04DX002 (ip), vehicle: other): 103 % of control
T/C [2]: 91 % of control

C/C(=C/C(=O)O)C(=O)O.[NH-]C1CCCCC1[NH-].[Pt+2]
T/C (endpoint: median survival time, dose: 3.12 mg/kg/injection, schedule: Q04DX003 (ip), vehicle: saline): 100 % of control and 107 % of control
T/C (endpoint: median survival time, dose: 6.25 mg/kg/injection, schedule: Q04DX003 (ip), vehicle: saline): 96 % of control and 109 % of control
T/C (endpoint: median survival time, dose: 12.5 mg/kg/injection, schedule: Q04DX003 (ip), vehicle: saline): 108 % of control
T/C (endpoint: median survival time, dose: 25.0 mg/kg/injection, schedule: Q04DX003 (ip), vehicle: saline): 116 % of control and 111 % of control
T/C (endpoint: median survival time, dose: 50.0 mg/kg/injection, schedule: Q04DX003 (ip), vehicle: saline): 116 % of control and 120 % of control
T/C (endpoint: median survival time, dose: 200.0 mg/kg/injection, schedule: Q04DX003 (ip), vehicle: saline): 153 % of control and 185 % of control

CN(C)CCSCC(OC(=O)c1ccccc1)c1ccccc1 (centres undefined)
T/C (endpoint: mean survival time, dose: 25.0 mg/kg/injection, schedule: Q01DX009 (ip), vehicle: saline with Tween-80): 102 % of control
T/C (endpoint: mean survival time, dose: 50.0 mg/kg/injection, schedule: Q01DX009 (ip), vehicle: saline with Tween-80): 98 % of control
T/C [3]: 100 % of control

O=C(O)c1ccccc1F
T/C [4]: 96 % of control
T/C [5]: 107 % of control

ClC(Cl)(Cl)c1ccc(C(SCc2ccccc2)SCc2ccccc2)cc1
T/C [4]: 89 % of control
T/C [5]: 89 % of control
T/C [6]: 97 % of control

CCOC(=O)C(C)C(C)(O)c1ccccc1 (centres undefined)
T/C [7]: 97 % of control
T/C [8]: 97 % of control
T/C [9]: 98 % of control

COc1cc(C(=O)NC(=S)Nc2ccc3ccccc3c2)cc(OC)c1OC
T/C [3]: 90 % of control
T/C (endpoint: mean survival time, dose: 200.0 mg/kg/injection, schedule: Q01DX009 (ip), vehicle: saline with Tween-80): 94 % of control

NC1=NCN(c2ccc(OCCOc3ccc(NC(=O)CBr)cc3)cc2)C(N)=N1
T/C (endpoint: mean survival time, dose: 37.5 mg/kg/injection, schedule: Q04DX002 (ip), vehicle: saline with Tween-80): 96 % of control
T/C (endpoint: mean survival time, dose: 75.0 mg/kg/injection, schedule: Q04DX002 (ip), vehicle: saline with Tween-80): 96 % of control
T/C (endpoint: mean survival time, dose: 150.0 mg/kg/injection, schedule: Q04DX002 (ip), vehicle: saline with Tween-80): 90 % of control

CCOC(=O)C(C(C)=O)C(=O)CCc1ccccc1 (centres undefined)
T/C [7]: 99 % of control
T/C [8]: 100 % of control
T/C [9]: 103 % of control

CNC(=S)Nc1ccc(C(=O)NC(C)C)cc1
T/C (endpoint: mean survival time, dose: 50.0 mg/kg/injection, schedule: Q01DX009 (ip), vehicle: other): 100 % of control
T/C [10]: 95 % of control
T/C [11]: 97 % of control

CC1(c2ccccc2)NC(=O)NC1=O (centres undefined)
T/C [10]: 98 % of control
T/C [7]: 94 % of control
T/C [11]: 97 % of control
T/C [8]: 97 % of control
T/C [9]: 91 % of control

COc1c(CNC(=O)CCl)cc2[nH]c(C)cc2c1CNC(=O)CCl
T/C (endpoint: mean survival time, dose: 12.5 mg/kg/injection, schedule: Q01DX009 (ip), vehicle: Klucel (hydroxypropylcellulose) (HPC)): 98 % of control
T/C (endpoint: mean survival time, dose: 25.0 mg/kg/injection, schedule: Q01DX009 (ip), vehicle: Klucel (hydroxypropylcellulose) (HPC)): 98 % of control and 101 % of control
T/C [12]: 98 % of control and 103 % of control
T/C [13]: 97 % of control and 102 % of control
T/C [14]: 93 % of control and 104 % of control
T/C [15]: 95 % of control

O=S(CC(O)c1ccccc1)c1ccccc1 (centres undefined)
T/C [7]: 93 % of control
T/C [8]: 102 % of control

N#CC(=N)C(C#N)C#N
T/C (endpoint: mean survival time, dose: 12.5 mg/kg/injection, schedule: Q04DX002 (ip), vehicle: saline with Tween-80): 93 % of control
T/C (endpoint: mean survival time, dose: 25.0 mg/kg/injection, schedule: Q04DX002 (ip), vehicle: saline with Tween-80): 93 % of control
T/C (endpoint: mean survival time, dose: 50.0 mg/kg/injection, schedule: Q04DX002 (ip), vehicle: saline with Tween-80): 108 % of control

CC(=O)OC1CCCCCCCCCCC12OCCO2 (centres undefined)
T/C [1]: 104 % of control
T/C [2]: 115 % of control

CCCC(=O)C(CC)C(O)(C(F)(F)F)C(F)(F)F (centres undefined)
T/C [16]: 95 % of control
T/C [17]: 108 % of control
T/C [18]: 86 % of control

Cc1nc2c(=O)n(C3OC(CO)C(O)C3O)cnc2o1 (centres undefined)
T/C (endpoint: mean survival time, dose: 100.0 mg/kg/injection, schedule: Q01DX005 (ip), vehicle: saline): 103 % of control

O=C(CC(O)(C(F)(F)F)C(F)(F)F)c1cccc(C(F)(F)F)c1
T/C [4]: 90 % of control
T/C [5]: 108 % of control
T/C [6]: 103 % of control

Cc1ccc([N+](=O)[O-])cc1NC(=O)N1CCC(C)CC1
T/C [12]: 98 % of control
T/C [13]: 96 % of control
T/C [14]: 101 % of control

O=C(CBr)CC(O)(C(F)(F)F)C(F)(F)F
T/C [19]: 98 % of control

Nc1ccc(S(=O)(=O)O)cc1[N+](=O)[O-]
T/C (endpoint: mean survival time, dose: 100.0 mg/kg/injection, schedule: Q01DX009 (ip), vehicle: saline): 92 % of control
T/C (endpoint: mean survival time, dose: 200.0 mg/kg/injection, schedule: Q01DX009 (ip), vehicle: saline): 97 % of control
T/C (endpoint: mean survival time, dose: 400.0 mg/kg/injection, schedule: Q01DX009 (ip), vehicle: saline): 101 % of control

Nc1nc(N)nc(Nc2ccc(Sc3ccc(Nc4nc(N)nc(N)n4)cc3)cc2)n1
T/C (endpoint: mean survival time, dose: 180.0 mg/kg/injection, schedule: Q01DX Z (ip), vehicle: saline): 103 % of control

O=C(O)c1c[nH]c2ccccc2c1=O
T/C [7]: 101 % of control
T/C [8]: 101 % of control
T/C [9]: 90 % of control

CCSC(=N)N
T/C (endpoint: mean survival time, dose: 100.0 mg/kg/injection, schedule: Q04DX003 (ip), vehicle: saline): 94 % of control
T/C (endpoint: mean survival time, dose: 200.0 mg/kg/injection, schedule: Q04DX003 (ip), vehicle: saline): 91 % of control
T/C (endpoint: mean survival time, dose: 400.0 mg/kg/injection, schedule: Q04DX003 (ip), vehicle: saline): 97 % of control

O=C(CC(=O)c1cccc([N+](=O)[O-])c1)Nc1cccc([N+](=O)[O-])c1
T/C [13]: 92 % of control
T/C [16]: 90 % of control
T/C [14]: 92 % of control
T/C [17]: 96 % of control
T/C [15]: 94 % of control
T/C [18]: 96 % of control

O/N=C/C1CCCC[N-]1.[Co+3].[O-]/N=C/C1CCCC[N-]1.[O-]/N=C/C1CCCC[N-]1.[O-][Cl+3]([O-])([O-])O (centres undefined)
T/C (endpoint: mean survival time, dose: 100.0 mg/kg/injection, schedule: Q01DX001 (ip), vehicle: saline): 108 % of control
T/C (endpoint: mean survival time, dose: 200.0 mg/kg/injection, schedule: Q01DX001 (ip), vehicle: saline): 96 % of control
T/C (endpoint: mean survival time, dose: 400.0 mg/kg/injection, schedule: Q01DX001 (ip), vehicle: saline): 96 % of control

O=C(O)c1ccccc1C(=O)Nc1cccc(Cl)c1
T/C [16]: 110 % of control
T/C [17]: 93 % of control
T/C [18]: 98 % of control

CCCCC1(CC)NC(=O)NC1=O (centres undefined)
T/C (endpoint: mean survival time, dose: 100.0 mg/kg/injection, schedule: Q01DX001 (ip), vehicle: other): 92 % of control
T/C (endpoint: mean survival time, dose: 200.0 mg/kg/injection, schedule: Q01DX001 (ip), vehicle: other): 92 % of control
T/C (endpoint: mean survival time, dose: 400.0 mg/kg/injection, schedule: Q01DX001 (ip), vehicle: other): 87 % of control

CCOC(=O)c1cn[nH]c1/N=C/N(C)C
T/C [4]: 98 % of control
T/C [5]: 104 % of control
T/C [6]: 106 % of control

CCCCCCCCCCCCNC(=O)c1cc[n+](C)cc1
T/C (endpoint: mean survival time, dose: 12.5 mg/kg/injection, schedule: Q01DX009 (ip), vehicle: saline): 95 % of control
T/C [19]: 98 % of control
T/C (endpoint: mean survival time, dose: 25.0 mg/kg/injection, schedule: Q04DX003 (ip), vehicle: saline): 95 % of control
T/C (endpoint: mean survival time, dose: 50.0 mg/kg/injection, schedule: Q04DX003 (ip), vehicle: saline): 94 % of control
